Assay results from patent US7875300B2, “Methods for reducing circulating glucose levels” (Rutgers, The State University of New Jersey, priority 2006, dated 2011).
Values joined by “and” are separate entries in the source; they are usually repeats but may differ in a detail not shown here. Equal values may be shown once.

Tests used:
[1] = test system: male C57BL/6 mice on high fat diet; assay: Fasting blood glucose levels after a single gavage in mice on a high fat diet; assay type: in vivo; conditions: 300 mg, Group 5, gavage
Experimental: The Aframomum melegueta-derived hypoglycemic extract product of Example 1 was tested in vivo for hypoglycemic activity.
(§1) Five week old male C57BL/6 mice (Jackson Laboratories, Bar Harbor, Me.) were placed on either low fat or high fat rodent diets (D12450B, 10% kcal, low fat or D12492, 60% kcal, high fat, Research Diets, New Brunswick, N.J.).
The mice were housed four to a cage under controlled temperature ([…]) and 12 hr light-dark cycles. Food (standard mouse chow, Purina) and water were available on an ad libitum basis for 7 days. The mice were then randomly divided into six groups (n=6) for the study. Five groups of mice were fed the high fat diet for 12 weeks (Groups 1-5), and the sixth group (Group 6) was fed the low fat diet for 12 weeks. Weekly food intake per cage and individual body weights were determined throughout the study.
After 12 weeks, all mice (Groups 1-6) were fasted for 4 hrs. After fasting, Group 1 mice provided a control and were gavaged with saline containing 5% DMSO; mice of Groups 2-4 were gavaged with different concentrations of the hypoglycemic extract product of Example 1 in 5% DMSO; and, Group 5 mice were gavaged with 300 mg/kg of Metformin in 5% DMSO as a positive control. Group 6 mice, which were fed a low fat diet, were gavaged with saline containing 5% DMSO and thus were also used as a control. Blood glucose levels were measured with a One Touch® Ultra® handheld glucometer (Lifescan, Milpitas, Calif.) using One Touch® Ultra® test strips. Mice were deprived of food during testing and the blood glucose levels of whole blood (obtained from a tail nick procedure) were determined at certain times (0, 3, and 5 hours after fasting commenced).
[…] with compositions comprising […]. The blood glucose levels were tested immediately after treatment (0 hours) and then 3 and 5 hours after treatment.

[2] = test system: high fat diet-induced diabetic model (male C57BL/6 mice); assay: Oral glucose tolerance test in high fat diet-induced diabetic model; assay type: in vivo; conditions: OGTT after 1 wk
Experimental: The Aframomum melegueta-derived hypoglycemic extract product of Example 1 was tested in vivo for hypoglycemic activity using a high fat diet-induced diabetic model.
as §1
The mice were housed individually under controlled temperature (70° F.) and 12 hr light-dark cycles. Food (standard mouse chow, Purina) and water were available on an ad libitum basis for 7 days. The mice were then randomly divided into control Groups 1 and 6 (n=8-10), treatment Groups 2 and 3 (n=6), and two positive control Groups 4 and 5 (n=6) for the study. The control mice continued to receive either a high fat diet or a low fat diet, and the treatment groups were fed the high fat diet for a 14 week period. Two groups of mice were gavaged with PMI006 at a dose of 500 mg/kg daily. As a positive control, Metformin was administered at a dose of 300 mg/kg in two groups of positive control mice.
An oral glucose tolerance test was performed after seven days of treatment. On the test day, animals were fasted for seven hours and glucose (2.0 g/kg) was then orally administered to them. […]
Mice were deprived of food during testing and the blood glucose levels of whole blood (obtained from a tail nick procedure) were determined at certain times. The Aframomum melegueta-derived hypoglycemic extract product of Example 1 was orally administered at a dosage of 500 mg/kg to the two treatment Groups 2 and 3 either 1.5 or 3.0 hours before the glucose challenge. Metformin was orally administered at a dosage of 300 mg/kg to the animals in the positive control Groups 4 and 5 either 1.5 or 3.0 hours before the glucose challenge.

With `CN(C)C(=N)N=C(N)N` [Metformin] the “Avg. glucose” value ([1]; Time - 0 hours) was 218.5 mg/dL, the “glucose (mg/dl), individual animals” value ([1]; Time - 0 hours) was 252 mg/dL and 188 mg/dL and 194 mg/dL and 184 mg/dL and 274 mg/dL and 219 mg/dL and the “Avg. glucose” value ([1]; Time - 3 hours) was 149.7 mg/dL. For the same molecule, the “glucose (mg/dl), individual animals” value ([1]; Time - 3 hours) was 66 mg/dL and 148 mg/dL and 161 mg/dL and 147 mg/dL and 157 mg/dL and 219 mg/dL, the “Average value” ([1]; Time - 5 hours) was 128.2 mg/dL and the “glucose (mg/dl), individual animals” value ([1]; Time - 5 hours) was 145 mg/dL and 96 mg/dL and 119 mg/dL and 124 mg/dL and 162 mg/dL and 123 mg/dL. For the same molecule, the “Plasma glucose” value ([2]; 300 mg/kg oral 1.5 hr before glucose challenge, Group 4, 0 min) was 160 ± 4.9 mg/dL, the “Plasma glucose” value ([2]; 300 mg/kg oral 1.5 hr before glucose challenge, Group 4, 30 min) was 235 ± 12.2 mg/dL and the “Plasma glucose” value ([2]; 300 mg/kg oral 1.5 hr before glucose challenge, Group 4, 60 min) was 190 ± 11.1 mg/dL. For the same molecule, the “Plasma glucose” value ([2]; 300 mg/kg oral 1.5 hr before glucose challenge, Group 4, 90 min) was 164 ± 6.0 mg/dL, the “Plasma glucose” value ([2]; 300 mg/kg oral 3 hr before glucose challenge, Group 5, 0 min) was 173 ± 13.2 mg/dL and the “Plasma glucose” value ([2]; 300 mg/kg oral 3 hr before glucose challenge, Group 5, 30 min) was 207 ± 26.7 mg/dL. For the same molecule, the “Plasma glucose” value ([2]; 300 mg/kg oral 3 hr before glucose challenge, Group 5, 60 min) was 171 ± 14.8 mg/dL and the “Plasma glucose” value ([2]; 300 mg/kg oral 3 hr before glucose challenge, Group 5, 90 min) was 158 ± 6.7 mg/dL.
